Experimental data reported in patent US9534059B2, “TIKI inhibitors” (Children's Medical Center Corporation, priority 2012, dated 2017).

Target: T1, Tiki1 (Xenopus tropicalis, UniProt F6PTN1)
T1 construct: Thus the endogenous Tiki1 in the Organizer acts in both Wnt-producing and Wnt-responding cells; endogenous in cells; host or cells: Xenopus embryos (dorsal blastomeres / organizer)
T1 sequence (F6PTN1 24-480): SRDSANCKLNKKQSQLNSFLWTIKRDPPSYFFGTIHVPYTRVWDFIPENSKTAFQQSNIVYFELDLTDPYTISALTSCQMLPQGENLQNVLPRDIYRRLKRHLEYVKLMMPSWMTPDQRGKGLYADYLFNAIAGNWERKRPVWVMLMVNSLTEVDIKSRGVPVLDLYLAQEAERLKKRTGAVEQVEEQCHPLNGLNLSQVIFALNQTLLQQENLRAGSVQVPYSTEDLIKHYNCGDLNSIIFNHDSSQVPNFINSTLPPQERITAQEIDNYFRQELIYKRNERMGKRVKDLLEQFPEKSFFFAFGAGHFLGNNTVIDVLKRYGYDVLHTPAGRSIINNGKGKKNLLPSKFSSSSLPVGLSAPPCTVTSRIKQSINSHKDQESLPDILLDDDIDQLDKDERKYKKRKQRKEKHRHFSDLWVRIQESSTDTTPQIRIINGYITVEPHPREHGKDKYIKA
Assay: S01234-luciferase Wnt-responsive reporter assay in embryos with Tiki1MO knockdown
Type: in vivo
Details: 20 ng MO in Xwnt8-producing or Xwnt8-responding cells
Experimental: (C) The endogenous Tiki1 acts in Wnt-producing cells. Tiki1MO or control MO (20 ng) was co-injected with CS2+Xwnt8 DNA (40 pg) into a single dorsal blastomere at the 8-cell stage, while 501234-Luciferase or S0-luciferase (100 pg) plus TK-Renilla (1.25 pg) reporter DNAs were injected into a neighboring dorsal blastomere.
(D) The endogenous Tiki1 acts in Wnt-responding cells. S01234-luciferase or S0-luciferease and TK-Renilla reporter DNAs were co-injected with Tiki1MO or control MO into a single dorsal blastomere, while CS2+Xwnt8 was injected into a neighboring dorsal blastomere. Luciferase readings were normalized to Renilla.
The same question was addressed complementarily via Tiki1MO knockdown in dorsal blastomeres whose progenies expresses Tiki1 endogenously. At the 8-cell stage, an Xwnt8 expression plasmid (which transcribes Xwnt8 after mid-blastula transition) plus the Tiki1MO (or control MO) were co-injected into a single blastomere (i.e., to knock down Tiki1 in Xwnt8-producing cells), and the S01234-luciferase plasmid was injected into the neighboring blastomere. Alternatively the Xwnt8 plasmid was injected into a single blastomere, and the 501234-luciferase reporter plus Tiki1MO or control MO was co-injected into the neighboring blastomere (i.e., to knock down Tiki1 in Xwnt8-responding cells).

Tiki1 MO: morpholino antisense oligonucleotide against Tiki1, 5′-CCAAATGATTACCATCATAGCTCAG-3′ (SEQ ID NO:33) (all phosphorodiamidate morpholino (PMO))
XWnt8 response of S01234-luciferase reporter: enhanced
